Assay [1] has as its system VEGF induced increases in intracellular calcium levels in HUVEC (human umbilical vein endothelial cells). Nature of the assay: VEGF Stimulated Ca++ Signal in vitro (FLIPR). It counts as cell-based. As to conditions: VEGF 5 ng/mL; for IC50: 0.01 to 10.0 μM. The procedure, abridged: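 IC50 values derive from % inhibition of the VEGF (5 ng/mL) calcium response, taken as max-min fluorescence at 516 nm in Fluo-4-loaded HUVEC. Compounds (0.1% DMSO final) were added 30 min before stimulation, at 10 μM or across 0.01–10.0 μM.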

Assay [2] has as its target T1, cytoplasmic domain of the human VEGF receptor (VEGFR-2) (Homo sapiens, UniProt P35968).
T1 construct: The cytoplasmic domain of the human VEGF receptor (VEGFR-2) was expressed as a Histidine-tagged fusion protein; Histidine tag
Nature of the assay: KDR Assay. As to conditions: His-VEGFR-2; 3.6 μM ATP. It counts as biochemical. Put shortly:
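IC50 taken from blank-corrected OD492 curves of an anti-phosphotyrosine peroxidase ELISA. Reaction: 10 min, 25 °C, 3.6 μM ATP, 50 mM Hepes pH 7.4 with 20 mM MgCl2, 0.1 mM MnCl2 and 5% DMSO, on poly-Glu-Tyr-coated wells, started with insect-cell-expressed His-VEGFR-2 cytoplasmic domain.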

The subject of assay [3] is VEGF-induced EBD extravasation. Nature of the assay: VEGF-induced Dermal Extravasation in Guinea Pig (Miles Assay). It counts as in vivo. As to conditions: 75 mg/kg. How it is done: VEGF-induced Dermal Extravasation in Guinea Pig (Miles Assay). Male Hartley guinea pigs (300-600 g) were anesthetized with isofluorane, sheared, and given a single dose of drug or the respective vehicle. The guinea pigs were dosed orally unless indicated otherwise in Table 3. Ten minutes prior to the end of drug treatment, guinea pigs were anesthetized with isofluorane, and 0.5% Evans blue dye (EBD) in PBS (13-15 mg/kg dose of EBD) was injected intravenously. After 5 minutes, triplicate intradermal injections of 100 ng rhVEGF165 in 100 μl PBS and of 100 μl PBS alone were administered on the flank. After 20 minutes, each animal was euthanized with Pentosol, and the skin containing the intradermal injection sites was removed for image analysis.
Using an analog video camera coupled to a PC, an image of each trans-illuminated skin sample was captured, and the integrated optical density of each injection site was measured using ImagePro 4. For each skin sample, the difference between the mean optical density of the VEGF sites and mean optical density of the PBS sites is the measure of VEGF-induced EBD extravasation in that animal. These measured values were averaged per study group to determine the mean VEGF-induced EBD extravasation for each experimental condition, and the group means were then compared to assess inhibition of VEGF-induced EBD extravasation in the drug-treated groups relative to the vehicle-treated controls.
To determine the dose required for 50% inhibition (ID50), the percent inhibition data was plotted as a function of oral dose, using the ‘best-fit’ analysis within MicroSoft Excel software. The ID50 value was verified visually by using the plotted data (horizontal line from 50% y value, at intersection with best-fit line drop vertical line to x axis (dose)).

Structures are written as SMILES. A value given as a limit tells only on which side of the number the result lay.

These results are taken from patent US20030225152A1, “3-(Arylamino)methylene-1, 3-dihydro-2h-indol-2-ones as kinase inhibitors” (priority 2001, published 2003).

T1 sequence (P35968 786-1356): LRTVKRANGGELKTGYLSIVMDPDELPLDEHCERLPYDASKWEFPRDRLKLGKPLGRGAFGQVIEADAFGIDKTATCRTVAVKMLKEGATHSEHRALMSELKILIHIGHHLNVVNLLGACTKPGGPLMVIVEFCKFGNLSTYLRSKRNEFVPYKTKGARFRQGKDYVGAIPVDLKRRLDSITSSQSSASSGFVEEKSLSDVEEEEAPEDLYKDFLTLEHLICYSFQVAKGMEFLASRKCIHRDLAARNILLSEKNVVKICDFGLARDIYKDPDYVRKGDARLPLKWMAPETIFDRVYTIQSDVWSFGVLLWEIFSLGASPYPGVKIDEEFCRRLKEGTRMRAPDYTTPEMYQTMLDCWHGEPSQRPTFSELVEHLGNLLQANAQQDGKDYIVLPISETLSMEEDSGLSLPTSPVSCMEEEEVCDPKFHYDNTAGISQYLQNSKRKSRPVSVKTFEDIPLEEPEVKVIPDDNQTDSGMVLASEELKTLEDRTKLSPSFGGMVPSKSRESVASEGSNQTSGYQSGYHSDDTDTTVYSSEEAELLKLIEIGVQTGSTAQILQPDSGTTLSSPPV

What is called IC50 is the concentration that gives 50% inhibition. The inhibition is the percentage by which the read-out fell short of the control. For the molecule `CN(C)c1ccc(NC=C2C(=O)Nc3ccccc32)cc1` [Example 156, 3-[(4-Dimethylamino-phenylamino)-methylene]-1,3-dihydro-indol-2-one], the figures for the concentration for half-maximal inhibition (IC50) in assay [1], in assay [1] (Homo sapiens) and in assay [2] were 830 nM, no more than 1000 nM and 510 nM, respectively. The inhibition at 10 µM in assay [1] (Homo sapiens) came out at 95.4%. Besides, the “Miles Assay % inhibition” value in assay [3] (PEG400, oral) stood at 100%.

Regarding `CN1CCN(c2ccc(NC=C3C(=O)Nc4ccccc43)cc2)CC1` [Example 157, 3-{[4-(4-Methyl-piperazin-1-yl)-phenylamino]-methylenel}-1,3-dihydro-indol-2-one], the inhibition at 10 µM in assay [1] (Homo sapiens) was 97.9%. The molecule further returned a half-maximal inhibitory concentration (IC50) in assay [2] of 250 nM. In addition, the “Miles Assay % inhibition” value in assay [3] (PEG400, oral) turned out to be 38%.

For `O=C1Nc2ccc(F)cc2C1=CNc1ccc(N2CCOCC2)cc1` [Example 167, 5-Fluoro-3-[(4-morpholin-4-yl-phenylamino)-methylene]-1,3-dihydro-indol-2-one], the inhibition at 10 µM in assay [1] (Homo sapiens) came to 95.7%. Also, in assay [2], the midpoint of inhibition, the IC50, lay at 190 nM. The “Miles Assay % inhibition” value in assay [3] (PEG400, oral) came to 31%.

With `O=C1Nc2ccccc2C1=CNc1ccc(OCCCCN2CCCC2)cc1` [Example 179, 3-{[4-(4-Pyrrolidin-1-yl-butoxy)-phenylamino]-methylene}-1,3-dihydro-indol-2-one], the figures for the IC50 in assay [1], in assay [1] (Homo sapiens) and in assay [2] were 640 nM, no more than 1000 nM and 310 nM, respectively. The inhibition at 10 µM in assay [1] (Homo sapiens) was found to be 97.3%. Moreover, the “Miles Assay % inhibition” value in assay [3] (PEG400, oral) came out at 65%.

In the case of `Cc1cccc2c1C(=CNc1ccc(N)cc1)C(=O)N2` [Example 181, 3-[(4-Amino-phenylamino)-methylene]-4-methyl-1,3-dihydro-indol-2-one], the inhibition at 10 µM in assay [1] (Homo sapiens) stood at 97.7%. In assay [2], this molecule gave an IC50 of 350 nM. The “Miles Assay % inhibition” value in assay [3] (PEG400, oral) is 38%.

With `O=C1Nc2ccccc2C1=CNc1ccc(OCCCCN2CCOCC2)cc1` [Example 206, 3-{[4-(4-Morpholin-4-yl-butoxy)-phenylamino]-methylene}-1,3-dihydro-indol-2-one], the half-inhibitory concentration (IC50) is 670 nM in assay [1], no more than 1000 nM in assay [1] (Homo sapiens) and 240 nM in assay [2]. The inhibition at 10 µM in assay [1] (Homo sapiens) was 96.3%. Also, the “Miles Assay % inhibition” value in assay [3] (corn oil, oral) was 74%.

As for `CCN(CC)CCCCOc1ccc(NC=C2C(=O)Nc3ccccc32)cc1` [Example 207, 3-{[4-(4-Diethylamino-butoxy)-phenylamino]-methylene}-1,3-dihydro-indol-2-one], the IC50 in assay [1] was 510 nM; in assay [1] (Homo sapiens), no more than 1000 nM; in assay [2] it was 240 nM. Moreover, the inhibition at 10 µM in assay [1] (Homo sapiens) came out at 98.6%. In addition, the “Miles Assay % inhibition” value in assay [3] (corn oil, oral) is reported as 80%.

As for `CN1CCN(CCCCOc2ccc(NC=C3C(=O)Nc4ccccc43)cc2)CC1` [Example 208, 3-({4-[4-(4-Methyl-piperazin-1-yl)-butoxy]-phenylamino}-methylene)-1,3-dihydro-indol-2-one], the values for the concentration for half-maximal inhibition (IC50) in assay [1], in assay [1] (Homo sapiens) and in assay [2] were 530 nM, no more than 1000 nM and 260 nM, respectively. Moreover, the inhibition at 10 µM in assay [1] (Homo sapiens) is 99%. The “Miles Assay % inhibition” value in assay [3] (corn oil, oral) came to 32%.

`Nc1cccc(NC=C2C(=O)Nc3ccccc32)c1` [Example 211, 3-[(3-Amino-phenylamino)-methylene]-1,3-dihydro-indo1-2-one]: the half-inhibitory concentration (IC50) in assay [1] was 660 nM; in assay [1] (Homo sapiens), no more than 1000 nM; in assay [2], 460 nM. For the same molecule, the inhibition at 10 µM in assay [1] (Homo sapiens) was determined as 96.7%. Also, the “Miles Assay % inhibition” value in assay [3] (PEG400, oral) is on record as 38%.

For `CCN(CC)CCCOc1ccc(NC=C2C(=O)Nc3ccccc32)cc1` [Example 214, 3-{[14-(3-Diethylamino-propoxy)-phenylamino]-methylene}-1,3-dihydro-indol-2-one], the inhibition at 10 µM in assay [1] (Homo sapiens) came out at 97.3%. In assay [2], half-maximal inhibition (IC50) required 330 nM. Moreover, the “Miles Assay % inhibition” value in assay [3] (PEG400, oral) stood at 61%; in assay [3] (corn oil, oral) it was 78%.

Regarding `O=C1Nc2ccccc2C1=CNc1ccc(OCCCN2CCOCC2)cc1` [Example 215, 3-{[4-(3-Morpholin-4-yl-propoxy)-phenylamino]-methylene}-1,3-dihydro-indol-2-one], the half-inhibitory concentration (IC50) in assay [1] is 670 nM; in assay [1] (Homo sapiens) it was no more than 1000 nM; in assay [2], 340 nM. Besides, the inhibition at 10 µM in assay [1] (Homo sapiens) is 96.7%. Further, in assay [3] (PEG400, oral), the “Miles Assay % inhibition” value was found to be 53%.

Consider `O=C1Nc2ccccc2C1=CNc1ccc(OCCCN2CCCC2)cc1` [Example 216, 3-{[4-(3-Pyrrolidin-1-yl-propoxy)-phenylamino]-methylene}-1,3-dihydro-indol-2-one], for which the IC50 is 570 nM in assay [1], no more than 1000 nM in assay [1] (Homo sapiens) and 340 nM in assay [2]. Besides, the inhibition at 10 µM in assay [1] (Homo sapiens) was 95.3%. In assay [3] (PEG400, oral), the “Miles Assay % inhibition” value is on record as 91%.

With `CC1CN(c2ccc(NC=C3C(=O)Nc4ccc(F)cc43)cc2)CC(C)O1` (stereo not drawn) [Example 219, 3-{[4-(2,6-Dimethyl-morpholin-4-yl)-phenylamino]-methylene}-5-fluoro-1,3-dihydro-indol-2-one], the IC50 is 620 nM in assay [1], no more than 1000 nM in assay [1] (Homo sapiens) and 220 nM in assay [2]. The inhibition at 10 µM in assay [1] (Homo sapiens) turned out to be 97.4%. For the same molecule, in assay [3] (PEG400, oral), the “Miles Assay % inhibition” value was 28%.

`Cc1cccc2c1C(=CNc1ccc(N3CC(C)OC(C)C3)cc1)C(=O)N2` (stereo not drawn) [Example 220, 3-{[4-(2,6-Dimethyl-morpholin-4-yl)-phenylamino]-methylene}-4-methyl-1,3-dihydro-indol-2-one]: the inhibition at 10 µM in assay [1] (Homo sapiens) was 94.9%. In assay [2], this molecule displayed a concentration for half-maximal inhibition (IC50) of 60 nM. In addition, the “Miles Assay % inhibition” value in assay [3] (PEG400, oral) is given as 39%.

For `CC1CN(c2ccc(NC=C3C(=O)Nc4cc(F)ccc43)cc2)CC(C)O1` (stereo not drawn) [Example 229, 3-{[4-(2,6-Dimethyl-morpholin-4-yl)-phenylamino]-methylene}-6-fluoro-1,3-dihydro-indol-2-one], in assay [1] (Homo sapiens), the inhibition at 10 µM came to 97.2%. The IC50 in assay [2] was found to be 110 nM. The “Miles Assay % inhibition” value in assay [3] (PEG400, oral) came to 97%.

For `Cc1cccc2c1C(=CNc1ccc(OCCCN3CCCCC3)cc1)C(=O)N2` [Example 238, 4-Methyl-3-{[4-(3-piperidin-1-yl-propoxy)-phenylamino]-methylene}-1,3-dihydro-indol-2-one], the 50% inhibitory concentration (IC50) in assay [1] was 780 nM; in assay [1] (Homo sapiens), no more than 1000 nM; in assay [2], 60 nM. The inhibition at 10 µM in assay [1] (Homo sapiens) was determined as 98.4%. Further, in assay [3] (corn oil, oral), the “Miles Assay % inhibition” value turned out to be 60%.

As for `O=C1Nc2cc(F)ccc2C1=CNc1ccc(NCCN2CCOCC2)cc1` [Example 243, 6-Fluoro-3-{[4-(2-morpholin-4-yl-ethylamino)-phenylamino]-methylene}-1,3-dihydro-indol-2-one], the inhibition at 10 µM in assay [1] (Homo sapiens) came out at 95.6%. The molecule further gave an IC50 in assay [2] of 110 nM. Also, the “Miles Assay % inhibition” value in assay [3] (corn oil, oral) is 100%.
